Where two headings read alike, the source gives them in different places.
Experiments:
[1] = Partition between n-octanol and aqueous tris hydrochloride (Kpart); assay type: physicochemical; details: for Partition Coefficient, Kpart, Iron complex [Fe^III-(compound)3]: 100 µM
Description: Acid washed glassware is used throughout and, following mixing of 5 ml of the 10^-4 M aqueous solution with 5 ml of n-octanol for 1 minute, the aqueous n-octanol mixture is centrifuged at 1,000 g for 30 seconds. The two resulting phases are separated for a concentration determination by spectrophotometry on each.

human erythrocytes [2] = details: pH 7.4
Description: (§1) Following this period of incubation, an aliquot of the erythrocyte/medium mixture was placed above a layer of silcone oil and the erythrocytes separated by centrifugation through the oil. The ^59 Fe levels associated with the erythrocytes and the incubation medium were then counted.

rat jejunal sac = test: Iron uptake into the serosal space of the inverted rat jejunal sac
Description: Rats (male Sprague Dawley, 60 g) were killed and the jejunum removed, everted and cut into three segments (4 cm length). The segments were tied at both ends and filled with Krebs Ringer buffer (0.2 ml) and incubated in Krebs Ringer buffer containing ^59 Fe complexes at 37° C. for periods up to 1 hour. The contents of the sac were counted for ^59 Fe and measured spectrophotometrically.

apotransferrin = test: Ability of iron complexes to donate iron to apotransferrin; assay type: biochemical; details: within 10 minutes, 37° C., pH 7.4, 10^-4 M complex, 10^-4 M apotransferrin
Description: At 10, 20, 30 and 60 minute intervals 1 ml aliquots were removed from the media and added to a PD10 colum. 0.5 ml fractions were collected directly into scintillation vials for counting. The ^59 Fe associated with both the apotransferrin and the ligand was estimated as a function of time. […] Thus, although both the 3-hydroxypyrid-2-ones and the 3-hydroxypyrid-4-ones are able to denote iron to apotransferrin, the former are the more efficient.

[3] = Clearance and tissue distribution of 59Fe after intravenous injection in the cat; assay type: in vivo
Description: (§2) As well as the kidneys, various other tissues of the cat which recieved the Fe(III) 1-ethyl-3-hydroxypyrid-2-one were studied to assess the percentage of the original ^59 Fe dose which was present.

human erythrocytes [4] = test: Accumulation of iron complexes by human erythrocytes; details: 1 hour, 37° C., pH 7.4, 10^-3 M complex, 5% erythrocyte suspension; mean of at least three determinations
Description: as §1

cat intestine [5] = test: In vivo permeability of cat intestine towards iron complexes: 59Fe in blood, kidneys, urine and tissues after administration into the small intestine; details: for Concentration of [59Fe] in blood: 1 mg iron, pyridone complex with 20-fold excess of free pyridone
Description: (§3) The total ^59 Fe present in the kidneys and urine was then measured in each case.
as §2

cat intestine [6] = details: in vivo
Description: as §3, §2

[7] = n-octanol/tris hydrochloride, pH 7.4
[8] = relative to ferric chloride as 1, 37° C., up to 1 hour
[9] = n-octanol / 20 mM tris hydrochloride pH 7.4, 20° C., 10^-4 M, read-out: Partition Coefficient, Kpart, Free Compound (converted)

With `CC(C)n1cccc([O-])c1=O.CC(C)n1cccc([O-])c1=O.CC(C)n1cccc([O-])c1=O.[Fe+3]` [3:1 iron (III) complex of 3-hydroxy-1-(1'-methylethyl)pyrid-2-one] the “Partition Coefficient, Kpart, Iron complex [Fe^III-(compound)3]” value (“Partition Coefficient, Kpart” for short) [1, 7] was 13.50 and the “Amount of complex entering erythrocytes” value (human erythrocytes [2]) was 770 n.mole.
With `CCCn1ccc(=O)c([O-])c1C.CCCn1ccc(=O)c([O-])c1C.CCCn1ccc(=O)c([O-])c1C.[Fe+3]` [3:1 iron (III) complex of 3-hydroxy-2-methyl-1-propylpyrid-4-one] the “Amount of complex entering erythrocytes” value (human erythrocytes [2]) was 53 n.mole.
With `[Cl][Fe]([Cl])[Cl]` [FeCl3, ferric chloride] the “Relative Iron Uptake” value (rat jejunal sac) was 1.
In the case of `O=C1O[C@H]([C@@H](O)CO)C(O)=C1O` [Fe^III ascorbate, iron (III) ascorbate, reference compound], the logD at 100 µM [1, 7] is reported as -2.82 and the “Relative Iron Uptake” value (rat jejunal sac; [8]) is reported as 0.4.
In the case of `CCn1cccc([O-])c1=O.CCn1cccc([O-])c1=O.CCn1cccc([O-])c1=O.[Fe+3]` [iron complex of 1-ethyl-3-hydroxypyrid-2-one], the “Partition Coefficient, Kpart” value ([1]; n-octanol / 20 mM tris hydrochloride pH 7.4, 20° C., 10^-4 M) is reported as 1.06, the “iron removed from the iron complex by apotransferrin” value (apotransferrin) is reported as “over 90%” and the “Relative Iron Uptake” value (rat jejunal sac; [8]) is reported as 37. For the same compound, the “dose appearing in the urine” value [3] was “less than 1%”, the “half life of clearance from the circulation” value [3] was 45 min and the “Percentage of original 59Fe dose, Blood” value ([3]; after 4 hours) was 7%. The “Percentage of original 59Fe dose, Heart” value ([3]; after 4 hours) was 1.1%, the “Percentage of original 59Fe dose, Kidneys” value ([3]; after 4 hours) was 1% and the “Percentage of original 59Fe dose, Liver” value ([3]; after 4 hours) was 5.3%. The “Percentage of original 59Fe dose, Skeletal Muscle” value ([3]; after 4 hours) was 0.5%, the “Percentage of original 59Fe dose, Spleen” value ([3]; after 4 hours) was 0.7% and the “Percentage of original 59Fe dose, Urine” value ([3]; after 4 hours) was 0.5%. For the same compound, the “Percentage of original 59Fe dose, Reticuloendothelial System (Bone Marrow)” value ([3]; after 4 hours, estimated) was ~80%, the “Amount of complex entering erythrocytes” value (human erythrocytes [4]) was 250 n.mole and the “Concentration of [59Fe] in blood” value (cat intestine [5]; 20 minutes after administration into small intestine) was 200 c.p.m. For the same compound, the “Concentration of [59Fe] in blood” value (cat intestine [5]; 40 minutes after administration into small intestine) was 475 c.p.m, the “Concentration of [59Fe] in blood” value (cat intestine [5]; 60 minutes after administration into small intestine) was 643 c.p.m and the “Concentration of [59Fe] in blood” value (cat intestine [5]; 80 minutes after administration into small intestine) was 661 c.p.m. The “Concentration of [59Fe] in blood” value (cat intestine [5]; 100 minutes after administration into small intestine) was 784 c.p.m, the “Concentration of [59Fe] in blood” value (cat intestine [5]; 120 minutes after administration into small intestine) was 870 c.p.m and the “Concentration of [59Fe] in blood” value (cat intestine [5]; 140 minutes after administration into small intestine) was 834 c.p.m. For the same compound, the “Concentration of [59Fe] in blood” value (cat intestine [5]; 160 minutes after administration into small intestine) was 750 c.p.m, the “Concentration of [59Fe] in blood” value (cat intestine [5]; 180 minutes after administration into small intestine) was 900 c.p.m and the “clearance into the urine” value (cat intestine [5]; 4 hours, into small intestine) was “very slow”. The “percentage of the total dose in the kidneys” value (cat intestine [5]; 4 hours, into small intestine) was 0.05%, the “percentage of the total dose in the urine” value (cat intestine [5]; 4 hours, into small intestine) was “no more than 0.01%” and the “Concentration of [59Fe] in blood” value (cat intestine [5]; 240 minutes after administration into small intestine) was 948 c.p.m. The “59Fe in the sternum” value (cat intestine [5]; confirms reticuloendothelial system (bone marrow)) was “high levels of ^59 Fe in the sternum”, the “distribution of the iron in the body” value (cat intestine [5]; intrajejunal) was “widely distributed throughout the body” and the “Percentage of original 59Fe dose, Blood” value (cat intestine [5]; intrajejunal, after 4 hours) was 3%. The “Percentage of original 59Fe dose, Heart” value (cat intestine [5]; intrajejunal, after 4 hours) was 1.5%, the “Percentage of original 59Fe dose, Intestinal Tissue” value (cat intestine [5]; intrajejunal, after 4 hours) was 30% and the “Percentage of original 59Fe dose, Kidneys” value (cat intestine [5]; intrajejunal, after 4 hours) was 0.05%. The “Percentage of original 59Fe dose, Liver” value (cat intestine [5]; intrajejunal, after 4 hours) was 1.6%, the “Percentage of original 59Fe dose, Skeletal Muscle” value (cat intestine [5]; intrajejunal, after 4 hours) was 0.8% and the “Percentage of original 59Fe dose, Spleen” value (cat intestine [5]; intrajejunal, after 4 hours) was 0.1%. For the same compound, the “Percentage of original 59Fe dose, Urine” value (cat intestine [5]; intrajejunal, after 4 hours) was 0.01% and the “Percentage of original 59Fe dose, Reticuloendothelial System (Bone Marrow)” value (cat intestine [5]; intrajejunal, after 4 hours, estimated) was ~60%.
`CCCCn1ccc(=O)c(O)c1C` [1-butyl-3-hydroxy-2-methylpyrid-4-one, 1-Butyl-3-hydroxy-2-methylpyrid-4-one] gave a logD at 100 µM [1, 9] of 0.724.
With `Cn1cccc([O-])c1=O.Cn1cccc([O-])c1=O.Cn1cccc([O-])c1=O.[Fe+3]` [3:1 iron (III) complex of 3-hydroxy-1-methylpyrid-2-one] the “Partition Coefficient, Kpart” value [1, 7] was 0.10 and the “Amount of complex entering erythrocytes” value (human erythrocytes [2]) was 60 n.mole.
In the case of `Cc1c([O-])c(=O)ccn1C.Cc1c([O-])c(=O)ccn1C.Cc1c([O-])c(=O)ccn1C.[Fe+3]` [3:1 iron (III) complex of 3-hydroxy-1,2-dimethylpyrid-4-one], the “Partition Coefficient, Kpart” value [1, 7] is reported as 0.05 and the “Amount of complex entering erythrocytes” value (human erythrocytes [2]) is reported as 25 n.mole.
In the case of `O=C([O-])[C@H](O)[C@@H](O)[C@H](O)[C@H](O)CO.O=C([O-])[C@H](O)[C@@H](O)[C@H](O)[C@H](O)CO.[Fe+2]` [Fe^II gluconate], the “Relative Iron Uptake” value (rat jejunal sac) is reported as 1.6.
In the case of `Cc1c([O-])c(=O)ccn1C(C)C.Cc1c([O-])c(=O)ccn1C(C)C.Cc1c([O-])c(=O)ccn1C(C)C.[Fe+3]` [3:1 iron (III) complex of 3-hydroxy-1-(1'-methylethyl)-2-methylpyrid-4-one], the “Partition Coefficient, Kpart” value [1, 7] is reported as 0.20 and the “Amount of complex entering erythrocytes” value (human erythrocytes [2]) is reported as 22 n.mole.
`CCn1ccc(=O)c(O)c1C` [1-ethyl-3-hydroxy-2-methylpyrid-4-one, 1-Ethyl-3-hydroxy-2-methylpyrid-4-one] showed a logD at 100 µM [1, 9] of -0.398.
`Cn1cccc(O)c1=O` [3-hydroxy-1-methylpyrid-2-one] gave a logD at 100 µM [1, 7] of -0.357.
With `Cc1c(O)c(=O)ccn1C` [3-hydroxy-1,2-dimethylpyrid-4-one] the logD at 100 µM [1, 7] was -0.678.
Work on `CCn1cccc(O)c1=O` [1-ethyl-3-hydroxypyrid-2-one] yielded a logD at 100 µM [1, 7] of -0.284.
Work on `CCCn1cccc(O)c1=O` [3-hydroxy-1-propylpyrid-2-one] yielded a logD at 100 µM [1, 7] of -0.108.
With `CC(C)n1cccc(O)c1=O` [3-hydroxy-1-(1'-methylethyl)-pyrid-2-one, 3-hydroxy-1-(1'-methylethyl)pyrid-2-one] the logD at 100 µM [1, 7] was 0.491.
In the case of `O=C([O-])CN(CCN(CC(=O)[O-])CC(=O)[O-])CC(=O)[O-].[Fe+3]` [Fe^III EDTA, iron (III) EDTA], the “percentage of the total dose in the urine” value (cat intestine [6]; cat, 4 h) is reported as 21% and the “clearance into the urine” value (cat intestine [6]) is reported as “cleared rapidly into the urine”.
For `CCCn1cccc([O-])c1=O.CCCn1cccc([O-])c1=O.CCCn1cccc([O-])c1=O.[Fe+3]` [3:1 iron (III) complex of 3-hydroxy-1-propylpyrid-2-one], the “Partition Coefficient, Kpart” value [1, 7] was 6.20 and the “Amount of complex entering erythrocytes” value (human erythrocytes [2]) was 710 n.mole.
For `CCCCn1ccc(=O)c([O-])c1C.CCCCn1ccc(=O)c([O-])c1C.CCCCn1ccc(=O)c([O-])c1C.[Fe+3]` [3:1 iron (III) complex of 1-butyl-3-hydroxy-2-methylpyrid-4-one], the “Partition Coefficient, Kpart” value [1, 7] was 7.70 and the “Amount of complex entering erythrocytes” value (human erythrocytes [2]) was 1630 n.mole.
In the case of `Cc1c(O)c(=O)ccn1C(C)C` [3-Hydroxy-2-methyl-1-(1'-methylethyl)pyrid-4-one], the logD at 100 µM [1, 9] is reported as -0.0223.
With `CCn1ccc(=O)c([O-])c1C.CCn1ccc(=O)c([O-])c1C.CCn1ccc(=O)c([O-])c1C.[Fe+3]` [3:1 iron (III) complex of 1-ethyl-3-hydroxy-2-methylpyrid-4-one] the “Partition Coefficient, Kpart” value [1, 7] was 0.03, the “iron removed from the iron complex by apotransferrin” value (apotransferrin) was 55% and the “Amount of complex entering erythrocytes” value (human erythrocytes [2]) was 20 n.mole.
